Measurements as given in patent US12350782B2, “Method for producing stable-phase crystals using physical grinding” (University-Industry Cooperation Group of Kyung Hee …, priority 2021, dated 2025).
Like-named read-outs stand apart in the source and are kept apart here.

Settings: for phase-transformed into gamma-glycine: after 24 hours

NCC(=O)O [alpha-glycine, glycine]
phase-transformed into gamma-glycine (100 g glass beads 1.7 to 2.0 mm, 300 g group 1, 500 rpm): 100%
gamma-glycine (stable phase crystal) obtained (glass beads 1.7 to 2.0 mm, about 100 to 200 g, 300 rpm, stirred/ground 24-48 hours, groups 1 to 6): 100%
time after which supersaturation of stable phase crystals (gamma-glycine) increased (magnetic bar in propeller stirring device, 300 rpm): about 1,500 minutes
stable phase crystals obtained (magnetic bar stirred/ground at 300 rpm for about 65 hours or more (6,800 minutes)): 100%
stable phase crystal (gamma-glycine) precipitation rate (simple propeller stirrer, no physical grinding, 300 g, 300 rpm, about 15 days, groups 1 to 6 of Table 1): 0%
phase transformation from alpha-glycine to gamma-glycine (zirconia beads 5.0 to 7.0 mm, 100 rpm, 24 hours plus further 48 hours stirring): 100%
phase-transformed into gamma-glycine (zirconia beads 5.0 to 7.0 mm, 300 g group 1, 100 rpm): 0%
